Laboratory results: patent publication US12570606B2, “Myeloperoxidase imaging agents” (The General Hospital Corporation, priority 2016, dated 2026)
Each block holds one compound with its values, some of them ahead of it.

Columns and labels:
MPO [1] = target: T1, MPO (Homo sapiens, UniProt P05164); assay: MPO-PET matrigel implantation imaging in mice; assay type: in vivo, mouse; settings: for Background, organ uptake and defluorination: matrigel PET imaging in mice
T1 sequence (P05164 49-745): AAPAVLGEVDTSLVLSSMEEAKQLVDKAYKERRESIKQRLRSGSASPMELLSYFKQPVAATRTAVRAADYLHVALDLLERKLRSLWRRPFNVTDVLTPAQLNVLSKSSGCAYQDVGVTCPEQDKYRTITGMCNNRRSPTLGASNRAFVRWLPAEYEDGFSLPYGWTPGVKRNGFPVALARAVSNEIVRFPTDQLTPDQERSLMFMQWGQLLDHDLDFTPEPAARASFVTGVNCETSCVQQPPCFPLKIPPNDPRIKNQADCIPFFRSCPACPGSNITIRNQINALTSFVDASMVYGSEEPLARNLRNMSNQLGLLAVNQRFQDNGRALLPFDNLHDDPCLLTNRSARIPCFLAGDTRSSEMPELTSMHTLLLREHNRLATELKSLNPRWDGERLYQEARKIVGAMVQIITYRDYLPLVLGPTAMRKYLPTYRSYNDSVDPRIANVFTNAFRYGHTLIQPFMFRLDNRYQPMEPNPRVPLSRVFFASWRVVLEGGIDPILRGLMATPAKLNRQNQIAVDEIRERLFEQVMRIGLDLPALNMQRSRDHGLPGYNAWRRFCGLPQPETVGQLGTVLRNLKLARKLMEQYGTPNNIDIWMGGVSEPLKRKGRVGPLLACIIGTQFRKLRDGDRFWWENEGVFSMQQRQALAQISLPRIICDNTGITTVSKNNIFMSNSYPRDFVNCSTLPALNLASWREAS
Protocol: 300 μL of 1:1 mixture of matrigel and minimal essential medium (MEM) containing GOX and/or different concentrations of MPO (0, 15 μL, 30 μL) was injected subcutaneously into the ventral aspect of the thighs of the mouse. After 30 min, 300-600 μCi of MPO Compound 9 was injected intravenously. After 2 h, the mice were scanned using PET scanning.
To validate the efficacy of the MPO PET agents for in vivo applications, matrigel implantation experiments were performed by embedding MPO in matrigel along with glucose oxidase (GOX) as H2O2 donor. Matrigel is a gelatinous protein mixture that is liquid at 0° C. but forms a gel at body temperature while remaining diffusible to molecules from the bloodstream when injected into living animals (see e.g., Chen et al, Radiology, 2006, 240(2):473-481). The MPO/matrigel mixtures were injected subcutaneously to the thighs of the mice followed by injection of the MPO PET tracers 30 min later. […] The signal of MPO side was around 1.7 fold higher compared to that of control side.
To verify the specificity of Compound 9 over MPO, different concentrations of MPO (0, 15 μL, 30 μL) were embedded in matrigel for the implantation experiments.

MPO activity = assay: Irritant contact dermatitis (PMA) in vivo FRI; parameters: species or system mouse; settings: wildtype mice
Protocol: Female C57Bl/6J (wildtype, Jackson laboratories, Bar Harbor, Me.) and MPO-knockout (KO, Jackson laboratories) mice were treated topically with 0.08 μmol Phorbol 12-myristate 13-acetate (PMA, Sigma, St. Louis, Mo.) on one hind-paw and with vehicle on the other to induce irritant contact dermatitis. This model is well described in the literature and triggers rapid inflammation with influx of neutrophils into the skin. 6 hours after induction, mice were injected intravenously with either 2 nmol of Compound 3 or the non-specific analogue, Compound 18. 1 hour later, 2.5 μg SA-647 was injected intravenously to bind to the biotinylated Compound 3. Mice underwent in vivo imaging using a dedicated in vivo FRI system as described above in Example 11.

MPO [2] = target: T2, MPO (Mus musculus, UniProt P11247); assay: CFA paw inflammation PET imaging and treatment by MPO inhibitor PF-1355; assay type: in vivo; parameters: from tissue; host or cells: inflamed forepaw of living mice (CFA)
T2 sequence (P11247 139-718): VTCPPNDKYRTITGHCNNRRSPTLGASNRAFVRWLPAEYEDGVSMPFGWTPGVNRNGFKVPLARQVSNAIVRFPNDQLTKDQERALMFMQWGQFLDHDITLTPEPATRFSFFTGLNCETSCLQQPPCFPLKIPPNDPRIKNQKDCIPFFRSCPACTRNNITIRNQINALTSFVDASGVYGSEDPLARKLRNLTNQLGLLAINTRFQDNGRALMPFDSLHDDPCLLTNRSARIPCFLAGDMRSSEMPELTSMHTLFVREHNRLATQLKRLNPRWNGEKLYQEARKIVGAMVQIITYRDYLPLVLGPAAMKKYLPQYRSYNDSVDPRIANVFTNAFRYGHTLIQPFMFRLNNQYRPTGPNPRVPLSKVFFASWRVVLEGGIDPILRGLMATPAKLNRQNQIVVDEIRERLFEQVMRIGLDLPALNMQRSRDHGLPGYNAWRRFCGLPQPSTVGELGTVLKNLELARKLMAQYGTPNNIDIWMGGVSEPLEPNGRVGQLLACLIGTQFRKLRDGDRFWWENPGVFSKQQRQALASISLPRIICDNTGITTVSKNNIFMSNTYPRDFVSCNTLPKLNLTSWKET
Protocol: Each pair contained one treated and one untreated, number of pairs, n=3. The 1/1 emulsion of CFA/PBS (40 μL) was injected subcutaneously on the dorsal side of one forepaw under isoflurane anesthesia, and PBS (40 μL) was injected on the other forepaw as control. After 1 h, the treated group was given PF-1355 (50 mg/kg) by gavage, then treated every 6 h for another 3 times, and the control group was treated with vehicle (10 mL/kg) accordingly. After 24 h, 300-600 uCi of Compound 9 was injected intravenously. After another 2 h, each pair of the mice was scanned side by side.
After validating the efficacy of the MPO Compound 9 in matrigel experiments, the specificity of the agent in inflammation was investigated. Complete Freund's Adjuvant (CFA) or its emulsion can cause inflammation when injected subcutaneously to the animal. The CFA emulsion was injected to one dorsal side of the forepaw of the mouse and the other side was injected with PBS. After 24 h, Compound 9 was injected intravenously and scanned 2 h after injection. […] To further verify the specificity of the MPO Compound 9, the mice were treated with MPO inhibitor PF-1355 1 h after CFA emulsion injection and continuously every 6 h afterwards for 4 times before injecting the Compound 9. The control group was treated with vehicle after CFA injection. Then each pair of the mice from treated and untreated groups were scanned.

Compound: O=C(Cc1c[nH]c2ccc(O)cc12)NC(Cc1c[nH]c2ccc(O)cc12)C(=O)NCCCCCC[18F] (centres unmarked) [Compound 5]
Background, organ uptake and defluorination (MPO [1]): high heart and liver uptake and high background were observed from defluorination

Compound: O=C(CCCC[C@@H]1SC[C@@H]2NC(=O)N[C@@H]21)N[C@@H](Cc1c[nH]c2ccccc12)C(=O)NCCc1c[nH]c2ccccc12 [Compound 18, N—((S)-1-((2-(1H-indol-3-yl)ethyl)amino)-3-(1H-indol-3-yl)-1-oxopropan-2-yl)-5-((3aS,4S,6aR)-2-oxohexahydro-1H-thieno[3,4-d]imidazol-4-yl)pentanamide]
Fluorescence intensity, PMA-treated hind-paw (MPO activity): 50.1±5.8 RFU
Fluorescence intensity, vehicle-treated hind-paw (MPO activity): 28.4±5.5 RFU

Ratio of PF-1355 treated to untreated (MPO [2]; mean of three pairs): .410
% Inhibition (MPO [2]; mean of three pairs, PF-1355 50 mg/kg by gavage, Compound 9 PET): 59%
Compound 9 uptake in inflamed paw, PF-1355 treated (MPO [2]; mean of three pairs, PF-1355 50 mg/kg by gavage): .0622 SUV
Compound 9 uptake in inflamed paw, PF-1355 treated (MPO [2]; mouse pair 1, PF-1355 50 mg/kg by gavage): .0555 SUV
Compound 9 uptake in inflamed paw, PF-1355 treated (MPO [2]; mouse pair 2, PF-1355 50 mg/kg by gavage): .0736 SUV
Compound 9 uptake in inflamed paw, PF-1355 treated (MPO [2]; mouse pair 3, PF-1355 50 mg/kg by gavage): .0575 SUV
Compound: COc1ccc(OC)c(-c2cc(=O)[nH]c(=S)n2CC(N)=O)c1 [PF-1355]

PET signal of MPO side (MPO [1]; matrigel MPO thigh vs control thigh): low signal
Background, organ uptake and defluorination (MPO [1]): high heart uptake
Compound: O=C(NC(Cc1c[nH]c2ccc(O)cc12)C(=O)NCCc1c[nH]c2ccc(O)cc12)c1ccc([18F])cc1 (centres unmarked) [Compound 7]
